Measurements: patent US20150252048A1, “SUBSTITUTED N-(3-PYRIMIDIN-4-YL)PHENYL)ACRYLAMIDE ANALOGS AS TYROSINE RECEPTOR KINASE BTK INHIBITORS” (UNIVERSITY OF UTAH RESEARCH FOUNDATION, priority 2012, published 2015)
Values joined by “and” are separate entries in the source; they are usually repeats but may differ in a detail not shown here. Identical values can stand only once. Like-named read-outs stand apart in the source and are kept apart here.

Tests used:
[1] = Microsomal stability, positive control assays; type: in vitro ADME; conditions: microsomes used in the study
Experimental: Data were also obtained for the stability of Compound 3 when incubated with a microsomal preparation. Drug metabolism can occur, at least in part, in cellular microsomes, and thus the assay assesses the stability of drug to metabolic modification. The concentration of compound 3 was 1 μM in the assay system and the indicated microsomes were present at 0.5 mg total protein per milliliter. The concentration of intact drug was determined at the indicated timepoints using a LC-MS/MS assay. The enzyme activity of the microsomes used in this study were assessed using a positive control, testosterone.

[2] = biological target: T1, recombinant full-length human BTK kinase (Homo sapiens, UniProt Q06187); assay: BTK kinase assay: ADP generation assay (ADP-Glo); type: biochemical; conditions: 60 nM BTK, MBP substrate, 60 min
T1 construct: recombinant full-length human BTK kinase with a (His)6 tag; (His)6; purchased Invitrogen Corporation, Carlsbad, Calif
T1 sequence (Q06187 whole entry): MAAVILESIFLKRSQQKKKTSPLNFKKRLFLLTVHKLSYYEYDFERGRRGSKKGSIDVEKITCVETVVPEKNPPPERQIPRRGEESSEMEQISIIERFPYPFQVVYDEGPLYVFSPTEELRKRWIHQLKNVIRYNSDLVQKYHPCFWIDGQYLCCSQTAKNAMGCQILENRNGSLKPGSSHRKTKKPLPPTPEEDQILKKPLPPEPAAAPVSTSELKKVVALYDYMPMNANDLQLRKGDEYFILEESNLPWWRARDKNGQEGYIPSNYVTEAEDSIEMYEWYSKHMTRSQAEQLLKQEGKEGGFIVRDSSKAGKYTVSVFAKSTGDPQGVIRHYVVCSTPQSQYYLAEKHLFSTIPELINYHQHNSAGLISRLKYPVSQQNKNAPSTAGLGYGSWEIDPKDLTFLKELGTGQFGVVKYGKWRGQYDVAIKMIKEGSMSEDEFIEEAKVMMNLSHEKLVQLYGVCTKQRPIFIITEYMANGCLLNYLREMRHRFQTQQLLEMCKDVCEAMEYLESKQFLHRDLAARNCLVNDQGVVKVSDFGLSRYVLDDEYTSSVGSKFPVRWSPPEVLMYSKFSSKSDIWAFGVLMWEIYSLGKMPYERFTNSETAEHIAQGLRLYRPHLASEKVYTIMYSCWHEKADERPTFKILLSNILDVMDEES
Experimental: The primary assay for compound inhibitory activity was the ADP generation assay described herein. Test compounds were diluted to desired concentrations in kinase reaction buffer and briefly incubated with recombinant full-length human BTK kinase with a (His)6 tag (81.3 kDa; Invitrogen Corporation, Carlsbad, Calif.). The assay as described is based on volumes used in a standard 384 well format using solid, white-wall plates. The reaction was subsequently initiated by the addition of ATP and myelin basic protein (MBP) substrate (Millipore Corporation, Waltham, Mass.). Composition of the assay reaction mixture ([…]) was: 5% v/v DMSO, 60 nM BTK, 1.6 µM ATP, and 20 µM MBP substrate. After incubation at room temperature for 60 min, […] (Promega Corporation, Madison, Wis.) was added to each well and incubated for an additional 40 minutes. The reagent stopped the kinase reaction and depleted the unconsumed ATP. Kinase Detection reagent ([…]; Promega Corporation) was then added to each well. The Kinase Detection reagent comprises reagents to convert ADP to ATP and provide luciferase and luciferin to detect ATP. Luminescence was measured on an EnVision microplate reader (PerkinElmer). The amount of luminescence from each reaction is directly correlated with BTK kinase activity. Percent inhibition and IC50 values were calculated by comparing enzyme activity in drug-treated wells to the appropriate controls.
(§1) IC50 values are determined using GraphPad Prism 5 software. The data were entered as an X-Y plot into the software as percent inhibition for each concentration of the drug. The concentration values of the drug were log transformed and the nonlinear regression was carried out using the “sigmoidal dose-response (variable slope)” option within the GraphPad software to model the data and calculate IC50 values. The IC50 values reported are the concentration of drug at which 50% inhibition was reached.
(§2) Activity (IC50) was determined in the BTK assays describe herein below, i.e. either the ADP generation assay and/or the time-resolved FRET assay, and the data are shown in Table III. The compound number corresponds to the compound numbers used in Table I. In the table below, “ADP Assay” refers to the assay which measures production of ADP resulting from use of ATP by the kinase; and “HTRF Assay” refers to the time resolved-FRET kinase assay described in the examples. Multiple values in a given column indicate the results of more than one assay for the given compound. Representative data of the type used to determine the IC50 values for the ADP assay in Table III are shown in FIG. 8 for compounds 3, 4, and 5.

BTK = BTK (Homo sapiens, UniProt Q06187); assay: BTK kinase assay: time resolved-FRET (HTRF) assay; type: biochemical; parameters: recombinant full-length human BTK kinase with a (His)6 tag; (His)6; purchased Invitrogen Corporation, Carlsbad, Calif; conditions: 10 nM BTK, 60 μM ATP, 1 μM substrate
Sequence of BTK (Q06187 whole entry): as above
Experimental: Activity of compounds was routinely confirmed using a secondary assay as described herein. The secondary assay was a time resolved-FRET kinase assay. Test compound are diluted to desired concentrations in kinase reaction buffer and briefly incubated with BTK kinase (as described above; Invitrogen). The reaction is initiated by the addition of ATP and enzyme substrate, HTRF® KinEASE™-TK Substrate-biotin (Cisbio US, Bedford, Mass.). The composition of the reaction (10 μl) was: 1% v/v DMSO, 10 nM BTK, 60 μM ATP, and 1 μM substrate. After incubation at room temperature for 60 min, the enzyme reaction is stopped by EDTA-containing buffer, which also contains europium-labeled (Eu^3+-Cryptate) anti-phosphotyrosine antibody (Cisbio) and Streptavidin-XL665 (Cisbio). The europium-labeled antibody generates a time-resolved FRET signal with the Stepavidin-XL665, which binds to the biotinylated TK substrate through the streptavidin conjugate when the substrate is phosphorylated. After one hour incubation at room temperature, fluoresence was measured with excitation of 320 nm and dual emission of 615 and 665 nm on an EnVision microplate reader. Signal is expressed in terms of a TR-FRET ratio (665:615).
as §1, §2

Pharmacokinetics in rat = type: in vivo, male Sprague Dawley rats; conditions: for AUC(0-t): read-out: AUC0-t
Experimental: The pharmacokinetic behavior of a representative disclosed compound, compound 3 (N-(3-(6-((3-morpholinophenyl)amino)-1H-pyrazolo[3,4-d]pyrimidin-4-yl)phenyl)acrylamide), which corresponds to compound 3 in Table I, was also evaluated in rat. A study was conducted using three male Sprague Dawley rats in each group as shown below:
The solution formulations were prepared as follows: (A) intravenous route (“i.v.”): a weighed quantity of 3 (10.45 mg) was transferred into a 10 mL clean glass vial. To this 0.231 mL of ethanol (4.5%) was added, vortexed and sonicated. To this 1.028 mL of propylene glycol (20%) was added, vortexed and sonicated. 1.543 mL of PEG400 (30%) was added, vortexed and sonicated. Finally 2.340 mL of water (45.5%) was added gradually, vortexed and sonicated to make a solution of 2 mg/mL concentration. The final solution was filtered using syringe filter (0.22 μm).; and (B) a weighed quantity of SC-1344 (27.43 mg) was transferred into a 10 mL clean glass vial. To this 0.304 mL of ethanol (4.5%) was added, vortexed and sonicated. To this 1.350 mL of propylene glycol (20%) was added, vortexed and sonicated. 2.024 mL of PEG400 (30%) was added, vortexed and sonicated. Finally 3.070 mL of water (45.5%) was added gradually, vortexed and sonicated to make a solution of 4 mg/mL concentration. The final solution was filtered using syringe filter (0.22 μm).
Bioanalysis was performed using fit-for-purpose LC-MS/MS method for the quantification of 3 in rat plasma samples. The calibration curve (CC) for the method consisted of nine non-zero calibration standards along with a double blank and zero standard samples. Study samples were analyzed along with two sets of quality control samples (6 QC samples; low, medium and high QC samples in triplicate). Briefly, the LC-MS/MS method used the following parameters: a) gradient mobile phase (Pump A: 0.1% Formic acid in water; Pump B: 100% methanol); b) XBridge C8, 50×4.6 mm, 3.5μ (Waters) column; c) 10 μL injection volume; d) 1.00 mL/min flow rate; e) 3.50 min run time; f) 10° C. sample cooler temperature; and g) 40° C. column oven temperature. The sample calibration curve was 1.02-1023 ng/mL, with an internal standard (telmisartan) at 0.2 μg/mL. Briefly, biological samples were prepared as follows: 50 μL of sample was mixed with 150 μL of internal standard, then mixture was vortexed for 5 min at 800 rpm, followed by centrifugation at 4000 rpm for 5 min; 150 μL of the sample supernatant was transferred into a separate tube and diluted with 75 μL of methanol: water (1:1), followed by injection into LC/MS/MS.
Plasma pharmacokinetic parameters were calculated using the non-compartmental analysis tool of Phoenix software (Version 6.3) and were determined from individual animals in each group. The area under the plasma concentration-time curve (AUC0-t and AUCinf), elimination half-life (T1/2), clearance (CL), volume of distribution (Vss) and Mean residence time (MRT) were calculated from intravenous group. The peak plasma concentration (Cmax), time to achieve peak plasma concentration (Tmax), AUC0-t and AUCinf, and absolute oral bioavailability (F) were calculated from the oral group.
The mean plasma concentration-time profiles are shown in FIGS. 10 and 11, i.e. the mean concentration values of the individual values obtained from each rat in the study group at the indicated time points.

[3] = male, Sprague Dawley, plasma, IV 5 mg/kg, solution

| Compound | IC50 [2] | IC50 (BTK) | further results |
| --- | --- | --- | --- |
| C[C@]12CC[C@H]3[C@@H](CCC4=CC(=O)CC[C@@]43C)[C@@H]1CC[C@@H]2O [testosterone] | – | – | Disappearance of positive control in microsomes [1]: rapid disappearance |
| C=CC(=O)Nc1cccc(-c2nc(Nc3cccc(N4CCOCC4)c3)nc3[nH]cc(Cl)c23)c1 [Compound 7, N-(3-(5-chloro-2-((3-morpholinophenyl)amino)-7H-pyrrolo[2,3-d]pyrimidin-4-yl)phenyl)acrylamide] | 96 nM | 175 nM | – |
| C=CC(=O)Nc1cccc(-c2nc(Nc3cccc(N4CCNCC4)c3)ncc2Cl)c1 [Compound 10, N-(3-(5-chloro-2-((3-(piperazin-1-yl)phenyl)amino)pyrimidin-4-yl)phenyl)acrylamide] | – | 70 nM | – |
| C=CC(=O)Nc1cccc(-c2nc(Nc3cccc(N4CCOCC4)c3)nc3[nH]ccc23)c1 [Compound 8, N-(3-(2-((3-morpholinophenyl)amino)-7H-pyrrolo[2,3-d]pyrimidin-4-yl)phenyl)acrylamide] | – | > 10000 nM | – |
| C=CC(=O)Nc1cccc(-c2nc(Nc3cccc(N4CCOCC4)c3)nc3[nH]nc(Cl)c23)c1 [Compound 5, N-(3-(3-chloro-6-((3-morpholinophenyl)amino)-1H-pyrazolo[3,4-d]pyrimidin-4-yl)phenyl)acrylamide] | 96 nM | 175 nM | – |
| C=CC(=O)Nc1cccc(-c2nc(Nc3cccc(N4CCN(C)CC4)c3)ncc2Cl)c1 [Compound 1, N-(3-(5-chloro-2-((3-(4-methylpiperazin-1-yl)phenyl)amino)pyrimidin-4-yl)phenyl)acrylamide] | 29 nM and 14 nM | 14.2 nM | – |
| C=CC(=O)Nc1cccc(-c2nc(Nc3cccc(N4CCNCC4)c3)nc3[nH]ncc23)c1 [Compound 9, N-(3-(6-((3-(piperazin-1-yl)phenyl)amino)-1H-pyrazolo[3,4-d]pyrimidin-4-yl)phenyl)acrylamide] | – | 14 nM | – |
| C=CC(=O)Nc1cccc(-c2nc(Nc3cccc(N4CCN(C)CC4)c3)nc3[nH]ncc23)c1 [Compound 4, N-(3-(6-((3-(4-methylpiperazin-1-yl)phenyl)amino)-1H-pyrazolo[3,4-d]pyrimidin-4-yl)phenyl)acrylamide] | 9 nM | 9.1 nM | – |
| C=CC(=O)Nc1cccc(-c2nc(Nc3cccc(N4CCOCC4)c3)nc3[nH]ncc23)c1 [SC-1344, N-(3-(6-((3-morpholinophenyl)amino)-1H-pyrazolo[3,4-d]pyrimidin-4-yl)phenyl)acrylamide] | – | – | Vss relative to total body water normalized to body weight (0.7 L/kg) (Pharmacokinetics in rat; IV 5 mg/kg): approximately 11 fold; clearance (Pharmacokinetics in rat; [3]): 79.7 mL/min/kg; half-life (Pharmacokinetics in rat; [3]): 2.71 h; AUC(0-t) (Pharmacokinetics in rat; [3]): 1060 ng·h/mL; Vd (Pharmacokinetics in rat; male, Sprague Dawley, plasma, IV 5 mg/kg, solution, read-out: Vss): 7.91 L/kg; bioavailability (Pharmacokinetics in rat; male, Sprague Dawley, plasma, PO 20 mg/kg vs IV 5 mg/kg, AUC0-t and nominal doses used, read-out: F (absolute oral bioavailability)): 2.44%; AUC(0-t) (Pharmacokinetics in rat; male, Sprague Dawley, plasma, PO 20 mg/kg, solution): 104 ng·h/mL; Cmax (Pharmacokinetics in rat; male, Sprague Dawley, plasma, PO 20 mg/kg, solution, read-out: Cmax): 23.1 ng/mL |
| C=CC(=O)Nc1cc(-c2nc(Nc3cccc(N4CCOCC4)c3)nc3[nH]nc(Cl)c23)ccc1Cl [Compound 6, N-(2-chloro-5-(3-chloro-6-((3-morpholinophenyl)amino)-1H-pyrazolo[3,4-d]pyrimidin-4-yl)phenyl)acrylamide] | ≥ 100000 nM | > 100000 nM | – |
| C=CC(=O)Nc1cccc(-c2nc(Nc3cccc(N4CCOCC4)c3)ncc2Cl)c1 [Compound 2, N-(3-(5-chloro-2-((3-morpholinophenyl)amino)pyrimidin-4-yl)phenyl)acrylamide] | 70 nM | – | – |
